Results on four compounds are retold here after BindingDB's records for doi:10.1002/cbic.201100587 (2012).

Sequence of Glutamine--fructose-6-phosphate transaminase (isomerizing) (A6ZZL3 whole entry): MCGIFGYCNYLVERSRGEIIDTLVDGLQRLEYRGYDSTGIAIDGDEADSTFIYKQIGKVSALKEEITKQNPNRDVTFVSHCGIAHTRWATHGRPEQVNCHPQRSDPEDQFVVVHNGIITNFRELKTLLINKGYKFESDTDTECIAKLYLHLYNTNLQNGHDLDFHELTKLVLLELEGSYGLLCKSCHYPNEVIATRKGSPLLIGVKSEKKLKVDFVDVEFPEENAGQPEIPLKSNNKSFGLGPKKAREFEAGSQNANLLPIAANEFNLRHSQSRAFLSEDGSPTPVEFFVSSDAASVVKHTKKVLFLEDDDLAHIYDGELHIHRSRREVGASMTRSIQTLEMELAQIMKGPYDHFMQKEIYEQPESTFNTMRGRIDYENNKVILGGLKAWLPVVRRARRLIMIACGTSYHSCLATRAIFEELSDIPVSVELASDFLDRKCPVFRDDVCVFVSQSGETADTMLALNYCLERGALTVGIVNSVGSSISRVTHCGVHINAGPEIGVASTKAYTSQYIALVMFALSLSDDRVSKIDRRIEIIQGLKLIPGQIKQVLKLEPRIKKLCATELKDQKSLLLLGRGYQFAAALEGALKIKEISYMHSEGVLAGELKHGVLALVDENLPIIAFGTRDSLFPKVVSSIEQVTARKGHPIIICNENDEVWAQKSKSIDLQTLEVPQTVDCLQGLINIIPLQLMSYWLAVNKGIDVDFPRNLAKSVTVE

The assay concerns the target Glutamine--fructose-6-phosphate transaminase (isomerizing) (Saccharomyces cerevisiae (strain YJM789), UniProt A6ZZL3). Put plainly: Inhibition Assay. An excerpt:
The inhibition assay was followed under standard conditions with saturating concentrations of both substrates to determine the IC50 values.
Usually IC50 stands for the midpoint of a concentration-inhibition curve. A high value points to lower potency. What is called Ki is the equilibrium dissociation constant of an inhibitor or competing ligand from its target. The low end stands for a stronger hold on the target, the high end for a looser hold on the target. `N[C@@H](CNC(=O)[C@@H]1O[C@H]1C(=O)c1ccccc1)C(=O)O` [N3-Oxoacyl derivative, 1] displayed an IC50 of 0.66 mM and a Ki of 0.45 mM.

On to `CC(=O)[C@@H]1O[C@H]1C(=O)NC[C@H](N)C(=O)O` [N3-Oxoacyl derivative, 2], for which the IC50 was 7.35 mM and the Ki worked out at 19.4 mM.

`N[C@@H](CNC(=O)/C=C/C(=O)c1ccccc1)C(=O)O` [N3-Oxoacyl derivative, 3] came in with an IC50 of 0.27 mM and a Ki of 0.0565 mM.

In the case of `CC(=O)C=CC(=O)NC[C@H](N)C(=O)O` [N3-Oxoacyl derivative, 4], the IC50 is 5.6 mM and the affinity corresponds to a Ki of 15.2 mM.
